Measurements from paper PMC12259270, “Sensory neuron–expressed FGF13 controls nociceptive signaling in diabetic neuropathy models” (The Journal of Clinical Investigation, 2025).
Residues, ends and D or L forms follow the SMILES beside them. *: point of attachment. Cbz = O=C(OCc1ccccc1)*; OtBu = CC(C)(C)O*

Key:
[1] = system: Na+ currents in hIPSC-derived sensory neurons (RealDRG); experiment: Whole-cell voltage clamp, hIPSC-derived sensory neurons (RealDRG) with Nav1.8 blocker A-803467; type: cell-based, human; conditions: for Long-term inactivation, 2nd Pulse / Long-term inactivation, 3rd Pulse / Long-term inactivation, 4th Pulse / Activation / Peak Density / Steady-State inactivation / Tau (τ): RealDRG
Procedure: Next, we conducted whole-cell patch-clamp electrophysiological recordings in hIPSC-derived sensory neurons under three conditions: unstimulated and treated with 0.07% ethanol (capsaicin vehicle), treated with capsaicin (100 nM, 10 minutes), and treated with capsaicin plus SB-366791 (10 μM), a selective TRPV1 inhibitor. Each group was exposed to either vehicle (0.01% DMSO) or PW164 (50 μM), with all recordings performed in the presence of the Nav1.8 blocker A-803467 (300 nM) ([41]). The experimental groups are color coded in Figure 2A. Capsaicin caused potentiation of INa (Figure 2A) and induced hyperpolarizing shifts in the V1/2 of activation (Figure 2B) and SSI (Figure 2C). […] Next, we investigated whether silencing FGF13 could replicate PW164’s effects and prevent additional activity of the compound. hIPSC-derived sensory neurons were transfected with a previously validated pAAV-shFGF13-GFP construct ([42]) (Supplemental Figure 8). […] Neither PW164 nor FGF13 silencing affected Na+ currents in neurons transfected with pAAV-shCTRL-GFP or pAAV-shFGF13-GFP, whether unstimulated or treated with capsaicin in the presence of ProTx II (Supplemental Figure 9 and Supplemental Table 6). Thus, PW164 selectively modulated FGF13-dependent Na^+ current sensitization via TRPV1, with FGF13 silencing mimicking and validating PW164’s effect. […]
Whole-cell patch clamp electrophysiology
HEK293-Nav1.7 cells, HEK293 stably expressing human Nav1.6 (HEK-Nav1.6), HEK293 stably expressing human Nav1.5 (HEK-Nav1.5), human hIPSC-derived sensory neurons (RealDRGTM from Anatomic Incorporated 1020F1-1M) and donor-derived DRG neurons were plated at low density on glass coverslips and processed for whole-cell patch clamp electrophysiology in voltage-clamp and/or current clamp mode. Whole-cell patch electrophysiological experiments were conducted following previously published studies (26). Current densities were obtained by dividing INa amplitude by membrane capacitance. Current –voltage relationships were generated by plotting current density as a function of the […]. Conductance (G Na) was calculated by the […]
where INa is the current amplitude at voltage Vm, and Erev is the Na+ reversal potential.
Activation curves were derived by plotting normalized GNa as a function of test potential and fitted using […]
Where GNa,Max is the maximum conductance, Va is the membrane potential of half-maximal activation, Em is the membrane voltage and k is the slope factor. For steady -state inactivation, normalized current amplitude (INa/INa,Max) at the test potential was plotted as a function of prepulse potential (Vm) and fitted using the […]
Where Vh is the potential of half-maximal inactivation, E m is the membrane voltage, and k is the slope factor.
Transient INa inactivation decay was estimated with the standard exponential equation. Inactivation time constant (tau, τ) was fitted with the following equation: […]
where I(t) is the amplitude of the current at time t and Iss is the steady-state current during a single voltage-step.
The goodness of fitting was determined by correlation coefficient (R), and the cutoff of R was set at 0.85. To observe effects on long-term inactivation (LTI), a four-step protocol was employed during which cells were subjected to four 0 mV, 20 ms depolarization pulses separated by −90 mV, 40 ms recovery intervals. To control for various cell sizes, the current densities were calculated by dividing INa peak current amplitude/membrane capacitance (Cm). To represent the fraction of channels entering into LTI, the peak INa observed during depolarization cycles 2-4 was normalized to the peak INa observed during depolarization cycle 1 (INa/INa,Cycle 1) and plotted as a function of the depolarization cycle.
The cumulative (frequency-dependent) use-dependency was determined by applying 20 pulses with a depolarization to −10 mV (50 ms duration) and 50 ms recovery intervals with a train of 20 pulses at 10 Hz from a holding potential at -70 mV. […]

[2] = molecular target: human ether-a-go-go-related gene (hERG) (Homo sapiens, UniProt Q12809)
Sequence of human ether-a-go-go-related gene (hERG) (Q12809 whole entry): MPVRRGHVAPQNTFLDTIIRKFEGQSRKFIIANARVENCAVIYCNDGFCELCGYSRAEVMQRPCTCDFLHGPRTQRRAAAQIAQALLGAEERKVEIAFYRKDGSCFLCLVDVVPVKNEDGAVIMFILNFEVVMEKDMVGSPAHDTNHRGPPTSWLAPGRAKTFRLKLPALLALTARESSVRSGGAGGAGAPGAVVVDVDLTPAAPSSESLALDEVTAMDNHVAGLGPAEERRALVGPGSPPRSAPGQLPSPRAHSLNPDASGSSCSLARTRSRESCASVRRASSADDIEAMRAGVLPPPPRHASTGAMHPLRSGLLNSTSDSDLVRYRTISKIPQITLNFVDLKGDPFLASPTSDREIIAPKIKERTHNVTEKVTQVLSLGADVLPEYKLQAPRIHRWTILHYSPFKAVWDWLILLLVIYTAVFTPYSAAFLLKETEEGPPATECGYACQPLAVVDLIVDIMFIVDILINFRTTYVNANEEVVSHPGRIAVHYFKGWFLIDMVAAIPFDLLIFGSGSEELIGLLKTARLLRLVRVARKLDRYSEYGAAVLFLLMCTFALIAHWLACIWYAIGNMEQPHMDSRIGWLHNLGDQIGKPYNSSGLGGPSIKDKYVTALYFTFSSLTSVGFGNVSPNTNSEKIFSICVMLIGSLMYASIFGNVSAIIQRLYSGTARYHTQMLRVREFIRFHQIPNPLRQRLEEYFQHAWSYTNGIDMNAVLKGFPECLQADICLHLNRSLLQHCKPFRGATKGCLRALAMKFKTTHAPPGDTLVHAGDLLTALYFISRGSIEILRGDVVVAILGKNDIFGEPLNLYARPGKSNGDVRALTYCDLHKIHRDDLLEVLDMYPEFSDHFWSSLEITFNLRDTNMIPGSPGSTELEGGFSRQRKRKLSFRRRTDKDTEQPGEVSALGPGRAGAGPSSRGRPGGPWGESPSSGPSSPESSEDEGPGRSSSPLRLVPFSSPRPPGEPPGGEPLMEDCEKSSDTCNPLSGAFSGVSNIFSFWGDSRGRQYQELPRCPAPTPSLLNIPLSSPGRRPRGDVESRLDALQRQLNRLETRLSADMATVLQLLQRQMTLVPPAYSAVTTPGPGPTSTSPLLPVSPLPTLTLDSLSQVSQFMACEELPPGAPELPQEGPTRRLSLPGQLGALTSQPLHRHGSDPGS

[3] = + A-803467, AAV-FGF13 + PW164, no capsaicin
[4] = + A-803467, Cap + Control + PW164
[5] = + A-803467, Cap+ AAV-FGF13 PW164
[6] = + A-803467, Cap+ ShFGF13 + PW164
[7] = + A-803467, Cap- Control (pAAV-shCTRL-GFP) + PW164
[8] = + A-803467, Cap- Control + PW164
[9] = + A-803467, Cap- ShFGF13 + PW164
[10] = + Nav1.8 blocker A-803467, Cap+ - PW164
[11] = + Nav1.8 blocker A-803467, Cap+ PW164
[12] = + Nav1.8 blocker A-803467, Cap+ SB-366791 - PW164
[13] = + Nav1.8 blocker A-803467, Cap+ SB-366791 PW164
[14] = + Nav1.8 blocker A-803467, Naïve + PW164
[15] = + Nav1.8 blocker A-803467, Naïve - PW164

SMILES: COC(=O)[C@@H](NC(=O)[C@H](CCC(=O)OC(C)(C)C)NC(=O)[C@H](CC(C)C)NC(=O)[C@@H]1CCCN1C(=O)OCc1ccccc1)C(C)C [PW164] (Cbz-PLE(OtBu)V-OMe)
- effect on capsaicin-induced Na+ current phenotypes ([1]; PW164 50 μM, 30–60 minutes, capsaicin 100 nM, except LTI): reversed capsaicin-induced phenotypes
- effect on Na+ currents without sensitization ([1]; PW164 50 μM, unstimulated control, or SB-366791, or ProTx II): no significant alterations
- Long-term inactivation, 2nd Pulse ([1]; + A-803467, AAV FGF13 + PW64): −68.4 ± 7.1 % maximal Na+ current
- Long-term inactivation, 3rd Pulse ([1]; + A-803467, AAV FGF13 + PW64): −61.9 ± 7.5 % maximal Na+ current
- Long-term inactivation, 4th Pulse ([1]; + A-803467, AAV FGF13 + PW64): −58.5 ± 8.3 % maximal Na+ current
- Activation [1, 3]: −24.3 ± 0.8 mV
- Peak Density [1, 3]: −114.3 ± 5.6 pA/pF
- Steady-State inactivation [1, 3]: −75.65 ± 1.6 mV
- Tau (τ) [1, 3]: 1.65 ± 0.14 ms
- Activation [1, 4]: −21.92 ± 0.87 mV
- Long-term inactivation, 2nd Pulse [1, 4]: −59.86 ± 2.37 % maximal Na+ current
- Long-term inactivation, 3rd Pulse [1, 4]: −49.84 ± 2.93 % maximal Na+ current
- Long-term inactivation, 4th Pulse [1, 4]: −46.98 ± 3.3 % maximal Na+ current
- Peak Density [1, 4]: −92.79 ± 7.96 pA/pF
- Steady-State inactivation [1, 4]: −58.11 ± 1.04 mV
- Tau (τ) [1, 4]: 1.42 ± 0.09 ms
- Activation [1, 5]: −27.8 ± 0.81 mV
- Peak Density [1, 5]: −91.7 ± 10.3 pA/pF
- Steady-State inactivation [1, 5]: −73.36 ± 1.4 mV
- Tau (τ) [1, 5]: 1.63 ± 0.22 ms
- Activation ([1]; + A-803467, Cap+ AAV-GFP PW164): −28.39 ± 0.59 mV
- Peak Density ([1]; + A-803467, Cap+ AAV-GFP PW164): −87.62 ± 9.5 pA/pF
- Steady-State inactivation ([1]; + A-803467, Cap+ AAV-GFP PW164): −75.15 ± 1.69 mV
- Tau (τ) ([1]; + A-803467, Cap+ AAV-GFP PW164): 2.0 ± 0.32 ms
- Long-term inactivation, 2nd Pulse ([1]; + A-803467, Cap+ GFP PW164): −53.56 ± 4.9 % maximal Na+ current
- Long-term inactivation, 3rd Pulse ([1]; + A-803467, Cap+ GFP PW164): −54.96 ± 3.6 % maximal Na+ current
- Long-term inactivation, 4th Pulse ([1]; + A-803467, Cap+ GFP PW164): −54.22 ± 4.3 % maximal Na+ current
- Activation [1, 6]: −32.72 ± 1.59 mV
- Long-term inactivation, 2nd Pulse [1, 6]: −74.3 ± 3.96 % maximal Na+ current
- Long-term inactivation, 3rd Pulse [1, 6]: −68.4 ± 5.4 % maximal Na+ current
- Long-term inactivation, 4th Pulse [1, 6]: −67.2 ± 5.2 % maximal Na+ current
- Peak Density [1, 6]: −76.49 ± 4.86 pA/pF
- Steady-State inactivation [1, 6]: −67.68 ± 1.53 mV
- Tau (τ) [1, 6]: 1.38 ± 0.10 ms
- Long-term inactivation, 2nd Pulse ([1]; + A-803467, Cap+ hFGF13 PW164): −55.4 ± 2.7 % maximal Na+ current
- Long-term inactivation, 3rd Pulse ([1]; + A-803467, Cap+ hFGF13 PW164): −52.0 ± 3.7 % maximal Na+ current
- Long-term inactivation, 4th Pulse ([1]; + A-803467, Cap+ hFGF13 PW164): −45.4 ± 3.1 % maximal Na+ current
- Activation [1, 7]: −25.74 ± 1.14 mV
- Peak Density [1, 7]: −111.31 ± 11.73 pA/pF
- Steady-State inactivation [1, 7]: −60.96±1.53 mV
- Tau (τ) [1, 7]: 1.18 ± 0.09 ms
- Long-term inactivation, 2nd Pulse [1, 8]: −86.72 ± 2.2 % maximal Na+ current
- Long-term inactivation, 3rd Pulse [1, 8]: −82.89 ± 3.3 % maximal Na+ current
- Long-term inactivation, 4th Pulse [1, 8]: −81.6 ± 3.6 % maximal Na+ current
- Activation [1, 9]: −29.77 ± 1.74 mV
- Long-term inactivation, 2nd Pulse [1, 9]: −82.82 ± 2.85 % maximal Na+ current
- Long-term inactivation, 3rd Pulse [1, 9]: −81.52 ± 3.86 % maximal Na+ current
- Long-term inactivation, 4th Pulse [1, 9]: −81.16 ± 4.06 % maximal Na+ current
- Peak Density [1, 9]: −96.02 ± 8.94 pA/pF
- Steady-State inactivation [1, 9]: −64.99 ± 1.30 mV
- Tau (τ) [1, 9]: 0.98 ± 0.09 ms
- Activation [1, 10]: −27.51 ± 1.22 mV
- Peak Density [1, 10]: −71.9 ± 9.4 pA/pF
- Steady-State inactivation [1, 10]: −74.71 ± 1.43 mV
- Tau (τ) [1, 10]: 1.39 ± 0.09 ms
- Long-term inactivation, 2nd Pulse [1, 11]: −45.59 ± 3.33 % maximal Na+ current
- Long-term inactivation, 3rd Pulse [1, 11]: −38.18 ± 2.61 % maximal Na+ current
- Long-term inactivation, 4th Pulse [1, 11]: −32.17 ± 4.29 % maximal Na+ current
- Activation [1, 12]: −30.7 ± 0.53 mV
- Peak Density [1, 12]: −95.2 ± 9.9 pA/pF
- Steady-State inactivation [1, 12]: −73.56 ± 1.33 mV
- Tau (τ) [1, 12]: 1.52 ± 0.11 ms
- Long-term inactivation, 2nd Pulse [1, 13]: −54.94 ± 3.35 % maximal Na+ current
- Long-term inactivation, 3rd Pulse [1, 13]: −47.15 ± 2.81 % maximal Na+ current
- Long-term inactivation, 4th Pulse [1, 13]: −45.57 ± 4.0 % maximal Na+ current
- Long-term inactivation, 2nd Pulse [1, 14]: −74.84 ± 5.46 % maximal Na+ current
- Long-term inactivation, 3rd Pulse [1, 14]: −67.02 ± 3.43 % maximal Na+ current
- Long-term inactivation, 4th Pulse [1, 14]: −65.63 ± 4.22 % maximal Na+ current
- Activation [1, 15]: −30.27 ± 0.75 mV
- Peak Density [1, 15]: −84.1 ± 5.9 pA/pF
- Steady-State inactivation [1, 15]: −75.11 ± 0.78 mV
- Tau (τ) [1, 15]: 0.98 ± 0.09 ms
- effect on INa potentiation by FGF13 overexpression ([1]; pAAV-FGF13-GFP neurons, PW164 50 μM): fully attenuated
- IC50 [2]: > 30 µM
